For 29 compounds, IC50 results are on record in patent US20240190865A1, “T-TYPE CALCIUM CHANNEL ANTAGONISTS AND USES THEREOF” (THE BOARD OF TRUSTEES OF THE LELAND STANFORD JUNIOR …, priority 2021, published 2024).

By IC50 is commonly meant the concentration at which inhibition is half-maximal. Read a low IC50 as greater potency in that assay.

The target in the assay is Cav3.2 (Homo sapiens (Human), UniProt O95180). The assay is described as follows: In vitro patch clamp assay (SyncroPatch 384PE). The following applies: HEK293 cells. The assay is classed as cell-based. How it is done: Patch clamp assays were performed at Charles River. HEK293 cells were cultured in Dulbecco's Modified Eagle Medium/Nutrient Mixture F-12 (D-MEM/F-12) supplemented with 10% fetal bovine serum, 100 U/mL penicillin G sodium, 100 μg/mL streptomycin sulfate and 500 μg/mL G418. Before testing, cells in culture dishes were washed twice with Hank's Balanced Salt Solution, treated with Accutase™ and re-suspended in the culture media (˜20×10^6 cells in 20 mL). Cells in suspension were allowed to recover for 10 minutes in tissue culture incubator set at 37° C. in a humidified 95% air: 5% CO2 atmosphere. Immediately before use in the SyncroPatch 384PE system (SP384PE), the cells were washed twice in extracellular buffer (HB-PS) to remove the culture medium and re-suspended in 20 mL of HB-PS. Extracellular buffer was loaded into the wells of Nanion 384-well Patch Clamp (NPC-384, 4×M) chip (60 μL per well). Then, cell suspension was pipetted into the wells (20 μL per well) of the chip. After establishment of the whole-cell configuration, membrane currents were recorded using patch clamp amplifier in the SP384PE system.
Sequence of Cav3.2 (O95180 whole entry): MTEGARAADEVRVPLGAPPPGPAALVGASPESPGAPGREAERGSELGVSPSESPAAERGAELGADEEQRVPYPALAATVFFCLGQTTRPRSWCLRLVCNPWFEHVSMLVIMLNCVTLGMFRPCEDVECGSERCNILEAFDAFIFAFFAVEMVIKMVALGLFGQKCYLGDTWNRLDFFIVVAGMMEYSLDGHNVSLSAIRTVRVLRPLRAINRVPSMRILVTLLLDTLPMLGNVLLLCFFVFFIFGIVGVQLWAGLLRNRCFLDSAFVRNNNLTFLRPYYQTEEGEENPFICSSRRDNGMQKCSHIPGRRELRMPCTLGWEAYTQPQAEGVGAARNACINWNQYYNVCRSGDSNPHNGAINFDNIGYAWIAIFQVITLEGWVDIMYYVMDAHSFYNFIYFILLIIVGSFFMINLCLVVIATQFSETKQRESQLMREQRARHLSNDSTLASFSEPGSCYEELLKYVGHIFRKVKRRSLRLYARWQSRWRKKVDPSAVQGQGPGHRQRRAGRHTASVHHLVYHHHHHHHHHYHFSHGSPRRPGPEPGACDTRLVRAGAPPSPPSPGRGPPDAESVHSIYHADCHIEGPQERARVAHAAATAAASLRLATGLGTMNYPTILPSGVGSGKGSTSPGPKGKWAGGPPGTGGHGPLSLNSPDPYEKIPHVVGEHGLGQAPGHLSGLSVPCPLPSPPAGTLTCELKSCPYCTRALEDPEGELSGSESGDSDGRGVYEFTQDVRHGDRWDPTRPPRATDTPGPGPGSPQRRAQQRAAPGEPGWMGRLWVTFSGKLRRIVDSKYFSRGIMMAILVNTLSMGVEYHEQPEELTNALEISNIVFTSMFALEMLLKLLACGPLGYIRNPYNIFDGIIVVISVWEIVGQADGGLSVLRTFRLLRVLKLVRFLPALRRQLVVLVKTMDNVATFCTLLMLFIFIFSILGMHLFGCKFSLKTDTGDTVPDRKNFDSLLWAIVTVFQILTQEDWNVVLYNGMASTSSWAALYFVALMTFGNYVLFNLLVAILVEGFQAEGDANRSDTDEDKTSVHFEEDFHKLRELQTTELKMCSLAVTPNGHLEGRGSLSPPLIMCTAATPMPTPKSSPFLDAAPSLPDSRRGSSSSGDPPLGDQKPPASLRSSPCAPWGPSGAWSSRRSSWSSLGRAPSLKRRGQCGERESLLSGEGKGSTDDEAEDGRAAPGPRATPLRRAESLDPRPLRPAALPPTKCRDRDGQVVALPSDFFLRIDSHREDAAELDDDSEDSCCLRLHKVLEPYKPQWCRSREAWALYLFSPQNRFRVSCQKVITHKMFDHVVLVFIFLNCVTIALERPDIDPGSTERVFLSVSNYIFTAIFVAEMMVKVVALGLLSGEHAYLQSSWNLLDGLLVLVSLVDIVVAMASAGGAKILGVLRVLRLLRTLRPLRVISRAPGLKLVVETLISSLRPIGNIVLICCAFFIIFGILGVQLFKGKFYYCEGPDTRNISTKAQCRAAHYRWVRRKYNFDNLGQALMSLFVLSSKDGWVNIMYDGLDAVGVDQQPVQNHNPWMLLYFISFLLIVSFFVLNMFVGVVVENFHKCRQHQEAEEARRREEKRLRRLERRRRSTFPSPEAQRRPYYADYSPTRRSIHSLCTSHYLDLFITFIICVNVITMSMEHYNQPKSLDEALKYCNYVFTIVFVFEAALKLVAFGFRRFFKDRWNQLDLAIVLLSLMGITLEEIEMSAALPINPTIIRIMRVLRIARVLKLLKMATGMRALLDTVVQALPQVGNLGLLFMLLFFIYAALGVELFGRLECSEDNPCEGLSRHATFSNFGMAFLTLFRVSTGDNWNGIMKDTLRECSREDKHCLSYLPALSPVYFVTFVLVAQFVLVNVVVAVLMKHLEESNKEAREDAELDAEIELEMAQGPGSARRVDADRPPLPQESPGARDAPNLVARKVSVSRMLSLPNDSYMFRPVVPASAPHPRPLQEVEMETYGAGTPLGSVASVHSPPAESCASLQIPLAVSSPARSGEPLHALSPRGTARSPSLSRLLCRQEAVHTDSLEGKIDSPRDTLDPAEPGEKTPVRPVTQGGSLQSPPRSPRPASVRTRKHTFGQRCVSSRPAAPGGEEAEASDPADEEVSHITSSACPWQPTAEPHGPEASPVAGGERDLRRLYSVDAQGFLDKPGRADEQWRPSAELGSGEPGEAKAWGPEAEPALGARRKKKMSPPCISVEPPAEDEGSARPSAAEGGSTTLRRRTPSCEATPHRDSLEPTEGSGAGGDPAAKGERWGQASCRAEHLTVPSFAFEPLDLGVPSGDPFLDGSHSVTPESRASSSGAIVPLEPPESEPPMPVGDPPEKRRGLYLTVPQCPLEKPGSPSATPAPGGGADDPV
A general note: In patch-clamp work, channel activity is measured electrically.
As to `CC(C)c1ccc(CC(=O)N[C@H](C)c2cc3cnn(CC(C)(F)F)c3cn2)cc1` [Example 14, (R)—N-(1-(1-(2,2-difluoropropyl)-1H-pyrazolo[3,4-c]pyridin-5-yl)ethyl)-2-(4-isopropylphenyl)acetamide], the IC50 is 85 nM.

With `C[C@@H](NC(=O)Cc1ccc(C(C)(F)F)nc1)c1cc2cnn(CC(F)(F)F)c2cn1` [Example 16, (R)-2-(6-(1,1-difluoroethyl)pyridin-3-yl)-N-(1-(1-(2,2,2-trifluoroethyl)-1H-pyrazolo[3,4-c]pyridin-5-yl)ethyl)acetamide], the IC50 was found to be 1270 nM.

`C[C@@H](NC(=O)Cc1ccc(C2(C(F)(F)F)CC2)s1)c1cc2cnn(CC(F)(F)F)c2cn1` [Example 17, (R)—N-(1-(1-(2,2,2-trifluoroethyl)-1H-pyrazolo[3,4-c]pyridin-5-yl)ethyl)-2-(5-(1-(trifluoromethyl)cyclopropyl)thiophen-2-yl)acetamide] displayed an IC50 of 292 nM.

For the compound `CC(C)c1ccc(CC(=O)N[C@H](C)c2cc3cnn(CC4(F)CC4)c3cn2)cc1` [Example 18, (R)—N-(1-(1-((1-fluorocyclopropyl)methyl)-1H-pyrazolo[3,4-c]pyridin-5-yl)ethyl)-2-(4-isopropylphenyl)acetamide], the IC50 turned out to be 343 nM.

Consider `C[C@@H](NC(=O)Cc1ccc(C(C)(F)F)cc1)c1cc2cnn(CC(F)(F)F)c2cn1` [Example 19, (R)-2-(4-(1,1-difluoroethyl)phenyl)-N-(1-(1-(2,2,2-trifluoroethyl)-1H-Pyrazolo[3,4-c]pyridin-5-yl)ethyl)acetamide], for which 132 nM corresponded to half-maximal inhibition (IC50).

`CC(C)c1ccc(CC(=O)N[C@H](C)c2cc3cnn(CC(F)(F)F)c3cn2)cn1` [Example 20, (R)-2-(6-isopropylpyridin-3-yl)-N-(1-(1-(2,2,2-trifluoroethyl)-1H-pyrazolo[3,4-c]pyridin-5-yl)ethyl)acetamide] had an IC50 of 1050 nM.

`C[C@@H](NC(=O)Cc1ccc(C2(C(F)F)CC2)nc1)c1cc2cnn(CC(F)(F)F)c2cn1` [Example 21, (R)-2-(6-(1-(difluoromethyl)cyclopropyl)pyridin-3-yl)-N-(1-(1-(2,2,2-trifluoroethyl)-1H-pyrazolo[3,4-c]pyridin-5-yl)ethyl)acetamide] had an IC50 of 637 nM.

The compound `C[C@@H](NC(=O)Cc1ccc(C2(C(F)F)CC2)cc1)c1cc2cnn(CC(F)(F)F)c2cn1` [Example 22, (R)-2-(4-(1-(difluoromethyl)cyclopropyl)phenyl)-N-(1-(1-(2,2,2-trifluoroethyl)-1H-pyrazolo[3,4-c]pyridin-5-yl)ethyl)acetamide] registered a half-inhibitory concentration (IC50) of 194 nM.

Compound `C[C@@H](NC(=O)Cc1ccc(C2CC2)nc1)c1cc2cnn(-c3ccc(F)cc3)c2cn1` [Example 23, (R)-2-(6-cyclopropylnyridin-3-yl)-N-(1-(1-(4-fluorophenyl)-1H-pyrazolo[3,4-c]pyridin-5-yl)ethyl)acetamide] gave an IC50 of 4020 nM.

On to `C[C@@H](NC(=O)Cc1ccc(C2CC2)cc1)c1cc2nnn(CC(F)(F)F)c2cn1` [Example 24, (R)-2-(4-cyclopropylphenyl)-N-(1-(3-(2,2,2-trifluoroethyl)-3H-[1,2,3]triazolo[4,5-c]pyridin-6-yl)ethyl)acetamide], for which it took 333 nM to reach half-maximal inhibition (IC50).

The compound `C[C@@H](NC(=O)Cc1ccc(C2CC2)nc1)c1cc2cnn(CC(F)(F)F)c2cn1` [Example 25, (R)-2-(6-cyclopropylpyridin-3-yl)-N-(1-(1-(2,2,2-trifluoroethyl)-1H-pyrazolo[3,4-c]pyridin-5-yl)ethyl)acetamide] returned an IC50 of 2590 nM.

`C[C@@H](NC(=O)Cc1ccc(C2(C(F)(F)F)CC2)nc1)c1cc2cnn(CC(F)(F)F)c2cn1` [Example 26, (R)—N-(1-(1-(2,2,2-trifluoroethyl)-1H-pyrazolo[3,4-c]pyridin-5-yl)ethyl)-2-(6-(1-(trifluoromethyl)cyclopropyl)pyridin-3-yl)acetamide] gave an IC50 of 7030 nM.

Compound `C[C@@H](NC(=O)Cc1ccc(C2CC2)cc1)c1cc2cnn(-c3ccc(F)cc3)c2cn1` [Example 27, (R)-2-(4-cyclopropylphenyl)-N-(1-(1-(4-fluorophenyl)-1H-Pyrazolo[3,4-c]pyridin-5-yl)ethyl)acetamide] returned an IC50 of 861 nM.

As for `C[C@@H](NC(=O)Cc1ccc(C2CC2)cc1)c1cc2cnn(CC(F)(F)F)c2cn1` [Example 28, (R)-2-(4-cyclopropylphenyl)-N-(1-(1-(2,2,2-trifluoroethyl)-1H-pyrazolo[3,4-c]pyridin-5-yl)ethyl)acetamide], the IC50 stood at 89 nM.

For `C[C@@H](NC(=O)Cc1ccc(C2(F)CC2)cc1)c1cc2cnn(CC(F)(F)F)c2cn1` [Example 29, (R)-2-(4-(1-fluorocyclopropyl)phenyl)-N-(1-(1-(2,2,2-trifluoroethyl)-1H-pyrazolo[3,4-c]pyridin-5-yl)ethyl)acetamide], the IC50 is 533 nM.

As for `Cc1nn(CC(F)(F)F)c2cnc([C@@H](C)NC(=O)Cc3ccc(C(C)C)cc3)cc12` [Example 32, (R)-2-(4-isopropylphenyl)-N-(1-(3-methyl-1-(2,2,2-trifluoroethyl)-1H-pyrazolo[3,4-c]pyridin-5-yl)ethyl)acetamide], the IC50 stood at 9420 nM.

The compound `Cc1nn(CC(F)(F)F)c2cnc([C@@H](C)NC(=O)Cc3ccc(C4CC4)cc3)cc12` [Example 33, (R)-2-(4-cyclopropylphenyl)-N-(1-(3-methyl-1-(2,2,2-trifluoroethyl)-1H-pyrazolo[3,4-c]pyridin-5-yl)ethyl)acetamide] showed an IC50 of 8270 nM.

For `C[C@@H](NC(=O)Cc1ccc(C2CC2)cn1)c1cc2cnn(CC(F)(F)F)c2cn1` [Example 34, (R)-2-(5-cyclopropylpyridin-2-yl)-N-(1-(1-(2,2,2-trifluoroethyl)-1H-pyrazolo[3,4-c]pyridin-5-yl)ethyl)acetamide], the IC50 was above 10000 nM.

As to `C[C@@H](NC(=O)Cc1cnc(C(C)(F)F)c(Cl)c1)c1cc2cnn(CC(F)(F)F)c2cn1` [Example 35, (R)-2-(5-chloro-6-(1,1-difluoroethyl)pyridin-3-yl)-N-(1-(1-(2,2,2-trifluoroethyl)-1H-pyrazolo[3,4-c]pyridin-5-yl)ethyl)acetamide], the half-inhibitory concentration (IC50) worked out at 2130 nM.

`C[C@@H](NC(=O)Cc1cnc(C2CC2)c(Cl)c1)c1cc2cnn(CC(F)(F)F)c2cn1` [Example 36, (R)-2-(5-chloro-6-cyclopropylpyridin-3-yl)-N-(1-(1-(2,2,2-trifluoroethyl)-1H-pyrazolo[3,4-c]pyridin-5-yl)ethyl)acetamide] displayed an IC50 of 873 nM.

As to `C[C@@H](NC(=O)Cc1ccc(C(C)(F)F)c(Cl)c1)c1cc2cnn(CC(F)(F)F)c2cn1` [Example 37, (R)-2-(3-chloro-4-(1,1-difluoroethyl)phenyl)-N-(1-(1-(2,2,2-trifluoroethyl)-1H-pyrazolo[3,4-c]pyridin-5-yl)ethyl)acetamide], 84 nM corresponded to half-maximal inhibition (IC50).

Consider `C[C@@H](NC(=O)Cc1ccc(C(C)(F)F)c(F)c1)c1cc2cnn(CC(F)(F)F)c2cn1` [Example 38, (R)-2-(4-(1,1-difluoroethyl)-3-fluorophenyl)-N-(1-(1-(2,2,2-trifluoroethyl)-1H-pyrazolo[3,4-c]pyridin-5-yl)ethyl)acetamide], for which the IC50 came to 123 nM.

As for `C[C@@H](NC(=O)Cc1cnc(C2CC2)c(F)c1)c1cc2cnn(CC(F)(F)F)c2cn1` [Example 39, (R)-2-(6-cyclopropyl-5-fluoropyridin-3-yl)-N-(1-(1-(2,2,2-trifluoroethyl)-1H-pyrazolo[3,4-c]pyridin-5-yl)ethyl)acetamide], 519 nM corresponded to half-maximal inhibition (IC50).

In turn, `C[C@@H](NC(=O)Cc1ccc(C(F)(F)F)cc1)c1cc2cnn(CC(C)(F)F)c2cn1` [Example 40, (R)—N-(1-(1-(2,2-difluoropropyl)-1H-pyrazolo[3,4-c]Pyridin-5-yl)ethyl)-2-(4-(trifluoromethyl)phenyl)acetamide] came in with a half-inhibitory concentration (IC50) of 827 nM.

As for `C[C@@H](NC(=O)Cc1ccc(C(C)(F)F)cc1)c1cc2cnn(CC(C)(F)F)c2cn1` [Example 41, (R)-2-(4-(1,1-difluoroethyl)phenyl)-N-(1-(1-(2,2-difluoropropyl)-1H-pyrazolo[3,4-c]pyridin-5-yl)ethyl)acetamide], half-maximal inhibition (IC50) required 727 nM.

The compound `C[C@@H](NC(=O)Cc1ccc(C(F)(F)F)c(F)c1)c1cc2cnn(CC(F)(F)F)c2cn1` [Example 42, (R)-2-(3-fluoro-4-(trifluoromethyl)phenyl)-N-(1-(1-(2,2,2-trifluoroethyl)-1H-pyrazolo[3,4-c]pyridin-5-yl)ethyl)acetamide] registered an IC50 of 394 nM.

Consider `C[C@@H](NC(=O)Cc1ccc(C(F)(F)F)c(Cl)c1)c1cc2cnn(CC(F)(F)F)c2cn1` [Example 43, (R)-2-(3-chloro-4-(trifluoromethyl)phenyl)-N-(1-(1-(2,2,2-trifluoroethyl)-1H-pyrazolo[3,4-c]pyridin-5-yl)ethyl)acetamide], for which the IC50 turned out to be 214 nM.

The compound `C[C@@H](NC(=O)Cc1ccc(C2(C(F)(F)F)CC2)cc1)c1cc2cnn(CC(F)(F)F)c2cn1` [Example 44, (R)—N-(1-(1-(2,2,2-trifluoroethyl)-1H-pyrazolo[3,4-c]pyridin-5-yl)ethyl)-2-(4-(1-(trifluoromethyl)cyclopropyl)phenyl)acetamide] came in with an IC50 of 71 nM.

In turn, `CC[C@@H](NC(=O)Cc1ccc(C(F)(F)F)cc1)c1cc2cnn(CC(F)(F)F)c2cn1` [Example 45, (R)—N-(1-(1-(2,2,2-trifluoroethyl)-1H-pyrazolo[3,4-c]pyridin-5-yl)propyl)-2-(4-(trifluoromethyl)phenyl)acetamide] registered an IC50 of 113 nM.
